Assay results as given in patent US4197288A, “Neuroleptic radioreceptor assay method and kit” (Burroughs Wellcome Co., priority 1977, dated 1980).
Read-outs that look alike come from different tables or passages of the source.

Assays:
[1] = human, in vivo, po
[2] = 0.1 μM drug preincubated with serum 10 min at 37°

Structure (SMILES) | Drug level recovered in the radioreceptor assay [2] [nM] | other results
O=C(CCCN1CCC(O)(c2ccc(Cl)cc2)CC1)c1ccc(F)cc1 [Haloperidol] | – | concentration [1]: 10 to 350 nM
CN(C)CCCN1c2ccccc2Sc2ccc(Cl)cc21 [chlorpromazine] | – | Drug level recovered in the radioreceptor assay (1 μM drug preincubated with serum 10 min at 37°): 1000 ± 100 nM
OCCN1CCN(CCCN2c3ccccc3Sc3ccc(C(F)(F)F)cc32)CC1 [fluphenazine] | 120 ± 10 | –
CN1CCN(CCCN2c3ccccc3Sc3ccc(C(F)(F)F)cc32)CC1 [trifluoperazine] | 160 ± 200 | –
